Data from the supplement of paper PMC10307832.

Key:
Assay in all cases: relative viability (nuclei count vs DMSO), 5 days (fraction); higher = more cells survive
NCI-H1437 = tested on: NCI-H1437
Outline: (§1)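 Values are medians from duplicate plates. Each reflects relative viability, defined as the nuclei count of treated wells over that of vehicle wells. Lung cancer cell lines in 1536-well plates were pin-tool dosed one day after seeding with one drug alone or with a fixed anchor-drug dose plus five library-drug doses (not always all listed) in √10 steps, then fixed, stained and imaged at 4× after 5 days.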

NCI-H1395 = tested on: NCI-H1395
Outline: as §1

BEN = tested on: BEN
Outline: as §1

SK-LU-1 = tested on: SK-LU-1
Outline: as §1

HCC-827 = tested on: HCC-827
Outline: as §1

HARA = tested on: HARA
Outline: as §1

NCI-H1993 = tested on: NCI-H1993
Outline: as §1

NCI-H647 = tested on: NCI-H647
Outline: as §1

NCI-H1734 = tested on: NCI-H1734
Outline: as §1

EKVX = tested on: EKVX
Outline: as §1

SK-MES-1 = tested on: SK-MES-1
Outline: as §1

SMILES: Nc1ccn([C@@H]2O[C@H](CO)[C@@H](O)[C@@H]2O)c(=O)n1 [Cytarabine] + COc1cccc2cc(-c3nc([C@H]4CC[C@H](C(=O)O)CC4)n4ncnc(N)c34)[nH]c12 [OSI-027] (partner 0.5 µM)
- relative viability (NCI-H1437; first compound 0.005 µM): 0.797
- relative viability (NCI-H1437; first compound 0.01581 µM): 0.584
- relative viability (NCI-H1437; first compound 0.05 µM): 0.541
- relative viability (NCI-H1437; first compound 0.1581 µM): 0.233
- relative viability (NCI-H1437; first compound 0.5 µM): 0.211
- relative viability (NCI-H1395; first compound 0.005 µM): 0.592
- relative viability (NCI-H1395; first compound 0.01581 µM): 0.484
- relative viability (NCI-H1395; first compound 0.05 µM): 0.369
- relative viability (NCI-H1395; first compound 0.1581 µM): 0.349
- relative viability (NCI-H1395; first compound 0.5 µM): 0.328
- relative viability (BEN; first compound 0.005 µM): 0.5
- relative viability (BEN; first compound 0.01581 µM): 0.315
- relative viability (BEN; first compound 0.05 µM): 0.309
- relative viability (BEN; first compound 0.1581 µM): 0.263
- relative viability (BEN; first compound 0.5 µM): 0.217
- relative viability (SK-LU-1; first compound 0.005 µM): 0.275
- relative viability (SK-LU-1; first compound 0.01581 µM): 0.294
- relative viability (SK-LU-1; first compound 0.05 µM): 0.297
- relative viability (SK-LU-1; first compound 0.1581 µM): 0.193
- relative viability (SK-LU-1; first compound 0.5 µM): 0.199
- relative viability (HCC-827; first compound 0.005 µM): 0.467
- relative viability (HCC-827; first compound 0.01581 µM): 0.348
- relative viability (HCC-827; first compound 0.05 µM): 0.265
- relative viability (HCC-827; first compound 0.1581 µM): 0.175
- relative viability (HCC-827; first compound 0.5 µM): 0.159
- relative viability (HARA; first compound 0.005 µM): 0.438
- relative viability (HARA; first compound 0.01581 µM): 0.236
- relative viability (HARA; first compound 0.05 µM): 0.149
- relative viability (HARA; first compound 0.1581 µM): 0.107
- relative viability (HARA; first compound 0.5 µM): 0.101
- relative viability (NCI-H1993; first compound 0.005 µM): 0.599
- relative viability (NCI-H1993; first compound 0.01581 µM): 0.56
- relative viability (NCI-H1993; first compound 0.05 µM): 0.529
- relative viability (NCI-H1993; first compound 0.1581 µM): 0.484
- relative viability (NCI-H1993; first compound 0.5 µM): 0.498
- relative viability (NCI-H647; first compound 0.005 µM): 0.479
- relative viability (NCI-H647; first compound 0.01581 µM): 0.33
- relative viability (NCI-H647; first compound 0.05 µM): 0.271
- relative viability (NCI-H647; first compound 0.1581 µM): 0.105
- relative viability (NCI-H647; first compound 0.5 µM): 0.0867
- relative viability (NCI-H1734; first compound 0.005 µM): 0.355
- relative viability (NCI-H1734; first compound 0.01581 µM): 0.285
- relative viability (NCI-H1734; first compound 0.05 µM): 0.222
- relative viability (NCI-H1734; first compound 0.1581 µM): 0.133
- relative viability (NCI-H1734; first compound 0.5 µM): 0.13
- relative viability (EKVX; first compound 0.005 µM): 0.573
- relative viability (EKVX; first compound 0.01581 µM): 0.499
- relative viability (EKVX; first compound 0.05 µM): 0.635
- relative viability (EKVX; first compound 0.1581 µM): 0.37
- relative viability (EKVX; first compound 0.5 µM): 0.22
- relative viability (SK-MES-1; first compound 0.005 µM): 0.343
- relative viability (SK-MES-1; first compound 0.01581 µM): 0.282
- relative viability (SK-MES-1; first compound 0.05 µM): 0.18
- relative viability (SK-MES-1; first compound 0.1581 µM): 0.297
- relative viability (SK-MES-1; first compound 0.5 µM): 0.267
